This note sets out measurements from patent publication US8487108B2, “Piperidinyl carbamate intermediates for the synthesis of aspartic protease inhibitors” (Vitae Pharmaceuticals, Inc., priority 2005, dated 2013).

Experiment [1] has as its target T1, trypsin-activated recombinant human renin (Homo sapiens, UniProt P00797).
T1 sequence (P00797 67-406): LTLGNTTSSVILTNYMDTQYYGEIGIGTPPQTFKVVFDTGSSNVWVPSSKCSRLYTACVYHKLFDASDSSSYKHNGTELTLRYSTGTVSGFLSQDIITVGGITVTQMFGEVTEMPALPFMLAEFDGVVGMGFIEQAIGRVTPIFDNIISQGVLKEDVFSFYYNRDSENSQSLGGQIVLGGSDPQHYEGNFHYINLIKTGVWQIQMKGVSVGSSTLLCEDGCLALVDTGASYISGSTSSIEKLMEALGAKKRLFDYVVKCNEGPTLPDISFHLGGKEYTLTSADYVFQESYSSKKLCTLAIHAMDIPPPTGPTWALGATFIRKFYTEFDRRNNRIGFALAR
Put plainly: Renin fluorescence assay (internally quenched peptide substrate). Type of experiment: biochemical. An outline of the steps:
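Cleavage of an angiotensinogen-derived DABCYL-quenched peptide by trypsin-activated recombinant human renin (0.2-2 nM final) in 50 mM BES, 150 mM NaCl, 0.25 mg/mL BSA, pH 7.0; compounds 10 μM to 1 nM final. Fluorescence (ex 340/em 495 nm) followed 60-360 min at rt; linear-slope rates give percent inhibition versus uninhibited control.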

The target of experiment [2] is T2, plasma renin activity (PRA) in pooled mixed-gender human plasma (Homo sapiens, UniProt P00797).
T2 construct: pooled mixed-gender human plasma stabilized with EDTA; from tissue; host or cells: pooled mixed-gender human plasma (EDTA)
T2 sequence (P00797 67-406): T1 sequence (P00797 67-406)
Put plainly: Plasma renin activity (PRA) assay in human plasma. Type of experiment: biochemical. How it is done:
Incubations mixtures contain in the final volume of 250 μL 95.5 mM N,N-bis(2-hydroxyethyl)-2-aminoethanesulfonic acid, pH 7.0, 8 mM EDTA, 0.1 mM neomycin sulfate, 1 mg/mL sodium azide, 1 mM phenylmethanesulfonyl fluoride, 2% DMSO and 87.3% of pooled mixed-gender human plasma stabilized with EDTA. For plasma batches with low PRA (less than 1 ng/ml/hr) ˜2 pM of recombinant human renin is added to achieve PRA of 3-4 ng/ml/hr. The cleavage of endogenous angiotensinogen in plasma is carried out at 37° C. for 90 min and the product angiotensin I is measured by competitive radioimmunoassay using DiaSorin PRA kit.

Experiment [3] relates to double transgenic rats engineered to express human renin and human angiotensinogen. Briefly: Blood pressure by telemetry in double transgenic rats. The format is in vivo, rat. The note with it: dosage of 10 mg/kg, oral. How it is done:
Double Transgenic Rats: The efficacy of the renin inhibitors can also evaluated in vivo in double transgenic rats engineered to express human renin and human angiotensinogen (Bohlender J, Fukamizu A, Lippoldt A, Nomura T, Dietz R, Menard J, Murakami K, Luft F C, Ganten D. High human renin hypertension in transgenic rats. Hypertension 1997, 29, 428-434).
Experiments were conducted in 6-week-old double transgenic rats (dTGRs). The model has been described in detail earlier. […] The human angiotensinogen construct made up the entire human angiotensinogen gene (5 exons and 4 introns), with 1.3 kB of 5′-flanking and 2.4 kB of 3′-flanking sequences. The rats were purchased from RCC Ltd (Füllinsdorf, Switzerland). Radio telemetry transmitters were surgically implanted at 4 weeks of age. The telemetry system provided 24-h recordings of systolic, mean, diastolic arterial pressure (SAP, MAP, DAP, respectively) and heart rate (HR). Beginning on day 42, animals were transferred to telemetry cages. A 24 h telemetry reading was obtained. Rats were then dosed orally on the following 4 consecutive days (days 43-46). The rats were monitored continuously and allowed free access to standard 0.3%-sodium rat chow and drinking water.

Broadly, the IC50 is the concentration that inhibits the measured activity by half. In the case of `CNC[C@@H](CC1CCCOC1)NC(=O)N1CCC[C@@H]([C@@H](OCCNC(=O)OC)c2cc(F)cc(Cl)c2)C1` (single isomer, unassigned) [Example L-3c], the half-maximal inhibitory concentration (IC50) in experiment [1] (compounds of Formula (L)) and in experiment [2] (compounds of Formula (L)) was < 10 nM throughout.
In the case of `CN[C@H](CNC(=O)N1CCC[C@@H]([C@@H](OCCNC(=O)OC)c2cccc(Cl)c2)C1)C[C@H]1CCCOC1` [XL-7, methyl 2-((R)-(3-chlorophenyl)((R)-1-((S)-2-(methylamino)-3-((R)-tetrahydro-2H-pyran-3-yl)propylcarbamoyl)piperidin-3-yl)methoxy)ethylcarbamate], the IC50 in experiment [1] (compounds of Formula (XL)) was < 1 nM; in experiment [2] (compounds of Formula (XL)) it was < 10 nM. Besides, the “effect in lowering blood pressures of double transgenic rats” value in experiment [3] is “significant effect in lowering blood pressures”.
Regarding `COC(=O)NCCO[C@@H](c1cc(F)cc(Cl)c1)[C@@H]1CCCN(C(=O)NC[C@@H](N)C[C@H]2CCCOC2)C1` [XL-3, methyl 2-((R)-((R)-1-((S)-2-amino-3-((R)-tetrahydro-2H-pyran-3-yl)propylcarbamoyl)piperidin-3-yl)(3-chloro-5-fluorophenyl)methoxy)ethylcarbamate], the IC50 in experiment [1] (compounds of Formula (XL)) and in experiment [2] (compounds of Formula (XL)) was < 10 nM in each case.
Regarding `CN[C@H](CNC(=O)N1CCC[C@@H]([C@@H](OCCNC(=O)OC)c2cc(Cl)ccc2C)C1)C[C@H]1CCCOC1` [XL-8, methyl 2-((R)-(5-chloro-2-methylphenyl)((R)-1-((S)-2-(methylamino)-3-((R)-tetrahydro-2H-pyran-3-yl)propylcarbamoyl)piperidin-3-yl)methoxy)ethylcarbamate], the IC50 in experiment [1] (compounds of Formula (XL)) was < 1 nM; in experiment [2] (compounds of Formula (XL)), < 10 nM.
For the compound `CNC[C@@H](CC1CCCOC1)NC(=O)N1CCC[C@@H]([C@@H](OCCNC(=O)OC)c2cc(F)cc(Cl)c2)C1` (single isomer, unassigned) [Example L-3d], the IC50 in experiment [1] (compounds of Formula (L)) and in experiment [2] (compounds of Formula (L)) was < 20 nM in each case.
For the compound `COC(=O)NCCO[C@@H](c1cc(F)ccc1C)[C@@H]1CCCN(C(=O)NC[C@@H](N)C[C@H]2CCCOC2)C1` [XL-6, methyl 2-((R)-((R)-1-((S)-2-amino-3-((R)-tetrahydro-2H-pyran-3-yl)propylcarbamoyl)piperidin-3-yl)(5-fluoro-2-methylphenyl)methoxy)ethylcarbamate], the half-maximal inhibitory concentration (IC50) in experiment [1] (compounds of Formula (XL)) is < 10 nM; in experiment [2] (compounds of Formula (XL)), < 50 nM.
The corresponding values for `COC(=O)NCCO[C@@H](c1cc(Cl)ccc1C)[C@@H]1CCCN(C(=O)NC[C@@H](N)C[C@H]2CCCOC2)C1` [XL-5, methyl 2-((R)-((R)-1-((S)-2-amino-3-((R)-tetrahydro-2H-pyran-3-yl)propylcarbamoyl)piperidin-3-yl)(5-chloro-2-methylphenyl)methoxy)ethylcarbamate] are < 1 nM and < 1 nM.
Turning to `COC(=O)NCCO[C@@H](c1cc(F)cc(F)c1)[C@@H]1CCCN(C(=O)NC[C@@H](N)C[C@H]2CCCOC2)C1` [XL-4, methyl 2-((R)-((R)-1-((S)-2-amino-3-((R)-tetrahydro-2H-pyran-3-yl)propylcarbamoyl)piperidin-3-yl)(3,5-difluorophenyl)methoxy)ethylcarbamate], the IC50 in experiment [1] (compounds of Formula (XL)) and in experiment [2] (compounds of Formula (XL)) was < 10 nM throughout.
Regarding `COC(=O)NCCO[C@@H](c1cccc(F)c1)[C@@H]1CCCN(C(=O)NC[C@@H](N)C[C@H]2CCCOC2)C1` [XL-2, methyl 2-((R)-((R)-1-((S)-2-amino-3-((R)-tetrahydro-2H-pyran-3-yl)propylcarbamoyl)piperidin-3-yl)(3-fluorophenyl)methoxy)ethylcarbamate], the IC50 was < 10 nM in experiment [1] (compounds of Formula (XL)) and < 20 nM in experiment [2] (compounds of Formula (XL)).
Take `CNC[C@H](C[C@H]1CCCCOC1)NC(=O)N1CCC[C@@H]([C@@H](OCCNC(=O)OC)c2cc(F)cc(Cl)c2)C1` [I*-141a, methyl 2-((R)-(3-chloro-5-fluorophenyl)((R)-1-((S)-1-(methylamino)-3-((R)-oxepan-3-yl)propan-2-ylcarbamoyl)piperidin-3-yl)methoxy)ethylcarbamate]: the IC50 in experiment [1] (compounds I*) was < 1 nM.
Turning to `CNC[C@@H](NC(=O)N1CCC[C@@H]([C@@H](OCCNC(=O)OC)c2cccc(F)c2F)C1)[C@@H](O)C1CCCC1` [I*-72a, methyl 2-((R)-((R)-1-((1S,2R)-1-cyclopentyl-1-hydroxy-3-(methylamino)propan-2-ylcarbamoyl)piperidin-3-yl)(2,3-difluorophenyl)methoxy)ethylcarbamate], the IC50 in experiment [1] (compounds I*) was < 10 nM.
`CNC[C@H](CC1CCOCC1)NC(=O)N1CCC[C@@H]([C@@H](OCCNC(=O)OC)c2cc(C)cc(C)c2)C1` [I*-36a, methyl 2-((R)-(3,5-dimethylphenyl)((R)-1-((S)-1-(methylamino)-3-(tetrahydro-2H-pyran-4-yl)propan-2-ylcarbamoyl)piperidin-3-yl)methoxy)ethylcarbamate]: in experiment [1] (compounds I*), the IC50 was < 50 nM.
The same measure, in the same setting: in the case of `CNC[C@H](C[C@H]1C[C@@H](F)[C@@H](F)C1)NC(=O)N1CCC[C@@H]([C@@H](OCCNC(=O)OC)c2cccc(Cl)c2)C1` [I*-124a, methyl 2-((R)-(3-chlorophenyl)((R)-1-((S)-1-((1r,3S,4R)-3,4-difluorocyclopentyl)-3-(methylamino)propan-2-ylcarbamoyl)piperidin-3-yl)methoxy)ethylcarbamate] it was < 20 nM.
Consider `CNC[C@H](CC1CCOC1)NC(=O)N1CCC[C@@H]([C@@H](OCCNC(=O)OC)c2cccc(F)c2)C1` (stereo partly drawn) [I*-6a, methyl 2-((R)-(3-fluorophenyl)((3R)-1-((S)-1-(methylamino)-3-(tetrahydrofuran-3-yl)propan-2-ylcarbamoyl)piperidin-3-yl)methoxy)ethylcarbamate], for which, in experiment [1] (compounds I*), the IC50 is > 50 nM.
Still for that read-out and setting: under `CNC[C@@H](NC(=O)N1CCC[C@@H]([C@@H](OCCNC(=O)OC)c2cccc(F)c2)C1)[C@@H](O)C1CCCCC1` [I*-48a, methyl 2-((R)-((R)-1-((1S,2R)-1-cyclohexyl-1-hydroxy-3-(methylamino)propan-2-ylcarbamoyl)piperidin-3-yl)(3-fluorophenyl)methoxy)ethylcarbamate] stands < 10 nM; under `CNC[C@H](CC1CCCCC1)NC(=O)N1CCC[C@@H]([C@H](OCCNC(=O)OC)c2nc(C)cs2)C1` [I*-33a, methyl 2-((S)-((R)-1-((S)-1-cyclohexyl-3-(methylamino)propan-2-ylcarbamoyl)piperidin-3-yl)(4-methylthiazol-2-yl)methoxy)ethylcarbamate], > 50 nM; under `CNC[C@H](CC1CCOCC1)NC(=O)N1CCC[C@@H]([C@@H](OCCNC(=O)OC)c2cccs2)C1` [I*-15a, methyl 2-((R)-((R)-1-((S)-1-(methylamino)-3-(tetrahydro-2H-pyran-4-yl)propan-2-ylcarbamoyl)piperidin-3-yl)(thiophen-2-yl)methoxy)ethylcarbamate], > 50 nM.
Take `COC(=O)NCCO[C@@H](c1cccc(Cl)c1)[C@@H]1CCCN(C(=O)NC[C@@H](N)C[C@H]2CCCOC2)C1` [XL-1, methyl 2-((R)-((R)-1-((S)-2-amino-3-((R)-tetrahydro-2H-pyran-3-yl)propylcarbamoyl)piperidin-3-yl)(3-chlorophenyl)methoxy)ethylcarbamate]: the IC50 in experiment [1] (compounds of Formula (XL)) and in experiment [2] (compounds of Formula (XL)) was < 10 nM throughout.
Take `COCC(C)(C)C[C@H](N)CNC(=O)N1CCC[C@@H]([C@@H](OCCNC(=O)OC)c2cccc(Cl)c2)C1` [I*-35a, methyl 2-((R)—((R)-1-((S)-2-amino-5-methoxy-4,4-dimethylpentylcarbamoyl)piperidin-3-yl)(3-chlorophenyl)methoxy)ethylcarbamate]: the IC50 in experiment [1] (compounds I*) is < 20 nM.
The same measure, in the same setting: under `CNC[C@H](CC1CCOCC1)NC(=O)N1CCC[C@@H]([C@@H](OCCNC(=O)OC)c2cccc(F)c2)C1` [I*-26a, methyl 2-((R)-(3-fluorophenyl)((R)-1-((S)-1-(methylamino)-3-(tetrahydro-2H-pyran-4-yl)propan-2-ylcarbamoyl)piperidin-3-yl)methoxy)ethylcarbamate] stands < 50 nM.
